Reference: ChEMBL document CHEMBL5233274, “Current Landscape and Future Perspective of Oxazolidinone Scaffolds Containing Antibacterial Drugs” (J Med Chem, 2021)
Converted amounts (≈) assume the structure as drawn.

Legend:
Type in all cases: functional
Enterococcus = test: Antibacterial activity against vancomycin-resistant Enterococcus assessed as inhibition of bacterial growth by CLSI protocol based method
Staphylococcus aureus [1] = test: Antibacterial activity against methicillin-resistant Staphylococcus aureus assessed as inhibition of bacterial growth by CLSI protocol based method
Staphylococcus aureus [2] = test: Antibacterial activity against Staphylococcus aureus ATCC 29213 assessed as inhibition of bacterial growth by CLSI protocol based method
Staphylococcus aureus [3] = test: Antibacterial activity against Staphylococcus aureus ATCC 25923 assessed as inhibition of bacterial growth incubated for 18 to 24 hrs by CLSI protocol based Tryptic soy broth method; details: time 18-24 hrs
Enterococcus faecalis = test: Antibacterial activity against Enterococcus faecalis ATCC 29212 assessed as inhibition of bacterial growth incubated for 18 to 24 hrs by CLSI protocol based Tryptic soy broth method; details: time 18-24 hrs
Staphylococcus aureus [4] = test: Antibacterial activity against methicillin-resistant Staphylococcus aureus assessed as inhibition of bacterial growth incubated for 18 to 24 hrs by CLSI protocol based Tryptic soy broth method; details: time 18-24 hrs
[5] = system: Staphylococcus epidermidis; test: Antibacterial activity against Staphylococcus epidermidis ATCC 12228 assessed as inhibition of bacterial growth incubated for 18 to 24 hrs by CLSI protocol based Tryptic soy broth method; details: time 18-24 hrs

| SMILES | MIC (Enterococcus) [µg/mL] | MIC (Staphylococcus aureus [1]) [µg/mL] | MIC (Staphylococcus aureus [2]) [µg/mL] | MIC (Staphylococcus aureus [3]) [µg/mL] | MIC (Enterococcus faecalis) [µg/mL] | MIC (Staphylococcus aureus [4]) [µg/mL] | MIC [5] [µg/mL] |
| --- | --- | --- | --- | --- | --- | --- | --- |
| CC(=O)NC[C@H]1CN(c2ccc(N3CCN(/N=C/c4ccc([N+](=O)[O-])o4)CC3)c(F)c2)C(=O)O1 | 1 (≈ 2.11 µM) | 1 (≈ 2.11 µM) | 0.25 (≈ 0.527 µM) |  |  |  |  |
| Cc1nc(C)c(COc2ccc(N3C[C@H](Cn4ccnn4)OC3=O)cc2F)nc1C |  |  |  | 8 (≈ 19.4 µM) | 32 (≈ 77.6 µM) | 4 (≈ 9.7 µM) | 8 (≈ 19.4 µM) |
| Cc1nc(C)c(COc2ccc(N3C[C@H](Cn4ccnn4)OC3=O)cc2)nc1C |  |  |  | 64 (≈ 162 µM) | 128 (≈ 325 µM) | 32 (≈ 81.1 µM) | 64 (≈ 162 µM) |
| Cc1nc(C)c(COc2ccc(N3C[C@H](CNC(=O)CCl)OC3=O)cc2F)nc1C |  |  |  | 8 (≈ 18.3 µM) | 8 (≈ 18.3 µM) | 2 (≈ 4.58 µM) | 4 (≈ 9.16 µM) |
| CC(=O)NC[C@H]1CN(c2ccc(OCc3nc(C)c(C)nc3C)c(F)c2)C(=O)O1 |  |  |  | 8 (≈ 19.9 µM) | 16 (≈ 39.8 µM) | 4 (≈ 9.94 µM) | 4 (≈ 9.94 µM) |
| Cc1nc(C)c(COc2ccc(N3C[C@H](CNC(=O)C(Cl)Cl)OC3=O)cc2)nc1C |  |  |  | 8 (≈ 17.6 µM) | 16 (≈ 35.3 µM) | 4 (≈ 8.82 µM) | 8 (≈ 17.6 µM) |
| COCC(=O)NC[C@H]1CN(c2ccc(OCc3nc(C)c(C)nc3C)cc2)C(=O)O1 |  |  |  | > 128 | > 128 | 64 (≈ 154 µM) | 128 (≈ 309 µM) |
| CC(=O)NC[C@H]1CN(c2ccc(N3CCN(/N=C/c4ncc(N)n4C)CC3)c(F)c2)C(=O)O1 | > 8 | > 8 | > 8 |  |  |  |  |
| Cc1nc(C)c(COc2ccc(N3C[C@H](CNC(=O)C(Cl)Cl)OC3=O)cc2F)nc1C |  |  |  | 4 (≈ 8.49 µM) | 8 (≈ 17 µM) | 2 (≈ 4.24 µM) | 4 (≈ 8.49 µM) |
| CC(=O)NC[C@H]1CN(c2ccc(OCc3nc(C)c(C)nc3C)cc2)C(=O)O1 |  |  |  | 16 (≈ 41.6 µM) | 32 (≈ 83.2 µM) | 8 (≈ 20.8 µM) | 16 (≈ 41.6 µM) |
| CC(=O)NC[C@H]1CN(c2ccc(N3CCN(/N=C/c4ccc([N+](=O)[O-])s4)CC3)c(F)c2)C(=O)O1 | 2 (≈ 4.08 µM) | 1 (≈ 2.04 µM) | 0.25 (≈ 0.51 µM) |  |  |  |  |
| CC(=O)NC[C@H]1CN(c2ccc(N3CCN(/N=C/Cn4c([N+](=O)[O-])cnc4C)CC3)c(F)c2)C(=O)O1 | 4 (≈ 7.96 µM) | 1 (≈ 1.99 µM) | 1 (≈ 1.99 µM) |  |  |  |  |
| CC(=O)NC[C@H]1CN(c2ccc(N3CCN(/N=C/c4c(Cl)cccc4[N+](=O)[O-])CC3)c(F)c2)C(=O)O1 | 8 (≈ 15.4 µM) | 8 (≈ 15.4 µM) | 8 (≈ 15.4 µM) |  |  |  |  |
| CC(=O)NC[C@H]1CN(c2ccc(N3CCN(/N=C/c4ccccc4[N+](=O)[O-])CC3)c(F)c2)C(=O)O1 | 2 (≈ 4.13 µM) | 1 (≈ 2.06 µM) | 2 (≈ 4.13 µM) |  |  |  |  |
| Cc1nc(C)c(COc2ccc(N3C[C@H](CNC(=O)c4ccco4)OC3=O)cc2F)nc1C |  |  |  | 32 (≈ 70.4 µM) | 128 (≈ 282 µM) | 32 (≈ 70.4 µM) | 16 (≈ 35.2 µM) |
| Cc1nc(C)c(COc2ccc(N3C[C@H](CO)OC3=O)cc2F)nc1C |  |  |  | 64 (≈ 177 µM) | 64 (≈ 177 µM) | 64 (≈ 177 µM) | 128 (≈ 354 µM) |
| CC(=O)NC[C@H]1CN(c2ccc(N3CCN(/N=C/c4cccc([N+](=O)[O-])c4)CC3)c(F)c2)C(=O)O1 | 2 (≈ 4.13 µM) | 1 (≈ 2.06 µM) | 2 (≈ 4.13 µM) |  |  |  |  |
| COCC(=O)NC[C@H]1CN(c2ccc(OCc3nc(C)c(C)nc3C)c(F)c2)C(=O)O1 |  |  |  | 128 (≈ 296 µM) | 128 (≈ 296 µM) | 32 (≈ 74 µM) | 32 (≈ 74 µM) |
| Cc1nc(C)c(COc2ccc(N3C[C@H](CNC(=O)CCl)OC3=O)cc2)nc1C |  |  |  | 8 (≈ 19.1 µM) | 16 (≈ 38.2 µM) | 8 (≈ 19.1 µM) | 8 (≈ 19.1 µM) |
| CCCCc1cn(C[C@H]2CN(c3ccc(OCc4nc(C)c(C)nc4C)c(F)c3)C(=O)O2)nn1 |  |  |  | > 128 | > 128 | > 128 | > 128 |
| CC(=O)NC[C@H]1CN(c2ccc(N3CCN(/N=C(\C)Cn4c([N+](=O)[O-])cnc4C)CC3)c(F)c2)C(=O)O1 | 4 (≈ 7.74 µM) | 1 (≈ 1.94 µM) | 1 (≈ 1.94 µM) |  |  |  |  |
| Cc1nc(C)c(COc2ccc(N3C[C@H](CNC(=O)c4ccco4)OC3=O)cc2)nc1C |  |  |  | 128 (≈ 293 µM) | > 128 | 64 (≈ 147 µM) | 64 (≈ 147 µM) |
| CC(=O)NC[C@H]1CN(c2ccc(N3CCOCC3)c(F)c2)C(=O)O1 [LINEZOLID] | 2 (≈ 5.93 µM) |  |  |  |  |  |  |
